In US20250228784A1, “ANTIFIBROTIC COMPOSITION” (Sunshine Lake Pharma Co., Ltd., priority 2021, published 2025):

Assay: Initial research on stability of the active compound on long-term storage
Assay type: physicochemical
Details: active compound alone, not formulated

## CCCCCCN(CCCCCC)c1ccc(-n2c(C)nc(C)cc2=O)cc1F [compound having formula (I), 3-(4-(dihexylamino)-3-fluorophenyl)-2,6-dimethylpyrimidin-4(3H)-one]
  stability on long-term storage: good stability
